Target: T1, NS3 genotype 3a protease (UniProt Q81258)
T1 construct: Purified NS3 protease domain (amino acids 1-181) of the genotype 1b and 3a virus were generated as above; fused on or other part: N-terminal hexahistidine tag and rTEV protease cleavage site (vector p28-N6H-Tev-NS3(181)3)
T1 sequence (Q81258 1033-1663): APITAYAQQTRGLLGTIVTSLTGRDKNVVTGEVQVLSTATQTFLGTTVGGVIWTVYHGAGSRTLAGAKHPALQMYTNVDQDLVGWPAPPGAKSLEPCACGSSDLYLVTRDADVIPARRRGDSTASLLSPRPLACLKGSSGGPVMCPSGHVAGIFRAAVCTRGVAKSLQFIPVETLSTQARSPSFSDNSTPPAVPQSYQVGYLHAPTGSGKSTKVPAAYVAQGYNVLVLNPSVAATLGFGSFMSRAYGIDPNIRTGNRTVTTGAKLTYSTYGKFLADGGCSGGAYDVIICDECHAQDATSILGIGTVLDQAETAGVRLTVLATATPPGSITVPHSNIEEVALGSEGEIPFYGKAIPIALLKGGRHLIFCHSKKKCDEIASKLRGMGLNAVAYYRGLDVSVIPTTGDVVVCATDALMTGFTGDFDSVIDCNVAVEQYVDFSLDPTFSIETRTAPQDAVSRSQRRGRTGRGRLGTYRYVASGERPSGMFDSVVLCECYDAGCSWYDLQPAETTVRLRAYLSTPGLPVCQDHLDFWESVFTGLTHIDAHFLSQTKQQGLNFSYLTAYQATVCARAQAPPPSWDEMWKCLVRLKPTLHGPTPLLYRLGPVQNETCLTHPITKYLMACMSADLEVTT
Assay: Ki determination, NS3 protease genotype 3a (fluorogenic depsipeptide substrate)
Assay type: biochemical, hepatitis C virus
Conditions: 200 pM enzyme, 20 μM NS4A peptide, 2 μM substrate, read-out: Ki 3A
From the text: The coding sequences for the genotype 3 HCV protease domain was amplified by RT-PCR using a Titan One Tube RT-PCR Kit (Roche, Indianapolis, Ind.) and RNA extracted from HCV-positive human serum (BBI Diagnostics, MA) using a QIAmp UltraSens Virus Kit (Qiagen, Valencia, Calif.). 5′ PCR primers were designed to encode N-terminal hexahistidine tags and to insert in-frame rTEV protease cleavage sites into the NS3 protease coding sequences. The resulting DNA fragments were cloned into pET28 yielding the expression vectors p28-N6H-Tev-NS3(181)1a and p28-N6H-Tev-NS3(181)3, respectively.
BL21AI bacteria (Invitrogen, Carlsbad, Calif.) were transformed with genotype 1b or 3 NS3 expression vectors and used to inoculate a 20 L fermentation vessel (Sartorius BBI System Inc., Bethlehem, Pa.), containing 18 L of fresh 2YT medium supplemented with 50 μg/mL kanamycin. When cell densities reached an OD600 of 1, the temperature of the cultures was reduced from 37° C. to 28° C. and induction was immediately initiated by the addition of 30 μM ZnSO4, 14 mM L-arabinose and 1 mM Isopropyl β-D-thiogalactoside (IPTG) final concentrations. Cells were harvested by centrifugation four hours post-induction and were stored as frozen pellets at −80° C. prior to NS3 protein purification.
Bacterial pellets collected from the expression of genotype 3 HCV NS3 protease were homogenized in Lysis Buffer (25 mM tris, pH 7.5 buffer containing 150 mM NaCl and 1 mM phenylmethanesulfonyl fluoride (PMSF)) and passed through a microfluidizer at 18,000 pounds/in^2. Homogenized cell lysates were centrifuged at 30,000×g for 30 minutes at 4° C. The resulting P1 pellets were washed with Wash Buffer I (25 mM tris, pH 7.5 containing 1% CHAPS) followed by centrifugation at 10,000×g for 30 minutes at 4° C. […] The resulting P3 pellets were resuspended in Solubilization Buffer (20 ml of 25 mM tris, pH 7.5 containing 150 mM NaCl and 8 M urea) and incubated at 4° C. for one hour. Solubilized proteins were passed through a 0.45 micron filter. Protein concentrations were measured and the solutions were adjusted to 40 mM DTT, incubated for 30 minutes at 4° C. and then quickly diluted into Refolding Buffer (25 mM tris, pH 8.5, 0.8 M Guanidine-HCl, 0.4 M L-Arginine, 10 mM ZnSO4) while stirring. Protein solutions were incubated at 4° C. overnight to allow refolding. Refolded proteases were centrifuged at 30,000×g for 10 minutes to remove residual precipitates. Final protein concentrations were then measured and the NS3 proteases were aliquoted, snap frozen in liquid nitrogen and stored at −80° C.
Purified NS3 protease domain (amino acids 1-181) of the genotype 1b and 3a virus were generated as above. The internally quenched fluorogenic depsipeptide substrate Ac-DED(Edans)-EEAbuψ[COO]ASK(Dabcyl)-NH2 and a synthetic peptide containing the hydrophobic core residues of the NS4A protein cofactor ([…]; NS4A peptide) were obtained from Anaspec, Inc. (San Jose, Calif.). Other chemicals and biochemicals were of reagent grade or better and were purchased from standard suppliers.
Reactions were run at room temperature in buffer consisting of 50 mM HEPES, 40% glycerol, 0.05% Triton X-100, 10 mM DTT, and 10% DMSO. The final assay solutions contained 50 pM NS3 genotype 1b protease or 200 pM genotype 3a protease, 20 μM NS4A peptide, and 4 μM substrate (genotype 1 b) or 2 μM substrate (genotype 3a). Inhibitor concentrations varied from 100 nM to 5 pM in 3-fold dilutions, and no-inhibitor controls were included.
Compound dilutions were made in DMSO at 20× final concentration. Reaction mixtures were prepared in 96-well assay plates. A solution of enzyme and NS4A peptide in assay buffer (25 μL volume with both reagents at 4× final concentration) was mixed with 45 μL assay buffer and 5 μL of either inhibitor or DMSO, and pre-incubated at room temperature for 1 hour. The reaction was started by addition of 25 μL substrate solution at 4× final concentration. […]

First: CC[C@@H]1[C@@H]2CN(C(=O)[C@H](C(C)(C)C)NC(=O)O[C@@H]3C[C@H]3CCCCC(F)(F)c3nc4ccc(OC(F)F)cc4nc3O2)[C@@H]1C(=O)N[C@]1(C(=O)NS(=O)(=O)C2(C)CC2)C[C@H]1C(F)F [Example 85, (1aR,5S,8S,9S,10R,22aR)-5-tert-butyl-14-(difluoromethoxy)-N-[(1R,2R)-2-(difluoromethyl)-1-{[(1-methylcyclopropyl)sulfonyl]carbamoyl}cyclopropyl]-9-ethyl-18,18-difluoro-3,6-dioxo-1,1a,3,4,5,6,9,10,18,19,20,21,22,22a-tetradecahydro-8H-7,10-methanocyclopropa[18,19][1,10,3,6]dioxadiazacyclononadecino[11,12-b]quinoxaline-8-carboxamide]
Second: CC[C@@H]1[C@@H]2CN(C(=O)[C@H](C(C)(C)C)NC(=O)O[C@@H]3C[C@H]3CCCCC(F)(F)c3nc4ccc(C#N)cc4nc3O2)[C@@H]1C(=O)N[C@]1(C(=O)NS(=O)(=O)C2(C)CC2)C[C@H]1C(F)F [Example 87, (1aR,5S,8S,9S,10R,22aR)-5-tert-butyl-14-cyano-N-[(1R,2R)-2-(difluoromethyl)-1-{[(1-methylcyclopropyl)sulfonyl]carbamoyl}cyclopropyl]-9-ethyl-18,18-difluoro-3,6-dioxo-1,1a,3,4,5,6,9,10,18,19,20,21,22,22a-tetradecahydro-8H-7,10-methanocyclopropa[18,19][1,10,3,6]dioxadiazacyclononadecino[11,12-b]quinoxaline-8-carboxamide]
The Ki of the first is 1.7-fold lower: 0.03 nM for the first, 0.05 nM for the second.

First: CC[C@@H]1[C@@H]2CN(C(=O)[C@H](C(C)(C)C)NC(=O)O[C@@]3(C)C[C@@H]3CCCCCc3nc4ccc(OC)cc4nc3O2)[C@@H]1C(=O)N[C@]1(C(=O)NS(=O)(=O)C2(C)CC2)C[C@H]1C(F)F [Example 8, (1aS,5S,8S,9S,10R,22aS)-5-tert-butyl-N-[(1R,2R)-2-(difluoromethyl)-1-{[(1-methylcyclopropyl)sulfonyl]carbamoyl}cyclopropyl]-9-ethyl-14-methoxy-1a-methyl-3,6-dioxo-1,1a,3,4,5,6,9,10,18,19,20,21,22,22a-tetradecahydro-8H-7,10-methanocyclopropa[18,19][1,10,3,6]dioxadiazacyclononadecino[11,12-b]quinoxaline-8-carboxamide]
Second: CC[C@@H]1[C@@H]2CN(C(=O)[C@H](C(C)(C)C)NC(=O)O[C@@H]3C[C@H]3CCCCCc3nc4ccc(OC)cc4nc3O2)[C@@H]1C(=O)N[C@]1(C(=O)NS(=O)(=O)C2(F)CC2)C[C@H]1C(F)F [Example 74, (1aR,5S,8S,9S,10R,22aR)-5-tert-butyl-N-[(1R,2R)-2-(difluoromethyl)-1-{[(1-fluorocyclopropyl)sulfonyl]carbamoyl}cyclopropyl]-9-ethyl-14-methoxy-3,6-dioxo-1,1a,3,4,5,6,9,10,18,19,20,21,22,22a-tetradecahydro-8H-7,10-methanocyclopropa[18,19][1,10,3,6]dioxadiazacyclononadecino[11,12-b]quinoxaline-8-carboxamide]
The Ki of the first is 3.5-fold higher: 0.42 nM for the first, 0.12 nM for the second. The second binds more tightly here.

Going from COc1ccc2nc3c(nc2c1)O[C@H]1CN(C(=O)[C@H](C(C)(C)C)NC(=O)O[C@H]2CC4CC(C4)[C@@H]2CCCCC3)[C@H](C(=O)N[C@]2(C(=O)NS(=O)(=O)C3CC3)C[C@H]2C(F)F)[C@@H]1C [Example 72, (4aS,8S,11S,12S,13R,25aS)-8-tert-butyl-N-[(1R,2R)-1-[(cyclopropylsulfonyl)carbamoyl]-2-(difluoromethyl)cyclopropyl]-17-methoxy-12-methyl-6,9-dioxo-2,3,4,4a,6,7,8,9,12,13,21,22,23,24,25,25a-hexadecahydro-1H,11H-1,3:10,13-dimethanoquinoxalino[2,3-k][1,10,3,6]benzodioxadiazacyclononadecine-11-carboxamide] to CC[C@@H]1[C@@H]2CN(C(=O)[C@H](C(C)(C)C)NC(=O)O[C@@H]3C[C@H]3CCCCC(F)(F)c3nc4ccc(OC)cc4nc3O2)[C@@H]1C(=O)N[C@]1(C(=O)NS(=O)(=O)C2(C)CC2)C[C@H]1CC(F)F [Example 35, (1aR,5S,8S,9S,10R,22aR)-5-tert-butyl-N-[(1R,2S)-2-(2,2-difluoroethyl)-1-{[(1-methylcyclopropyl)sulfonyl]carbamoyl}cyclopropyl]-9-ethyl-18,18-difluoro-14-methoxy-3,6-dioxo-1,1a,3,4,5,6,9,10,18,19,20,21,22,22a-tetradecahydro-8H-7,10-methanocyclopropa[18,19][1,10,3,6]dioxadiazacyclononadecino[11,12-b]quinoxaline-8-carboxamide], the Ki falls from 4.1 nM to 0.23 nM (18-fold).

Same assay, conditions: read-out: Ki 3A, 200 pM enzyme, 20 μM NS4A peptide, 2 μM substrate

Going from COc1ccc2nc3c(nc2c1)O[C@H]1CN(C(=O)[C@H](C(C)(C)C)NC(=O)O[C@@H]2C[C@H]2CCCCC3)[C@H](C(=O)N[C@]2(C(=O)NS(=O)(=O)C3(C)CC3)C[C@H]2CC(F)F)[C@@H]1C [Example 25, (1aR,5S,8S,9S,10R,22aR)-5-tert-butyl-N-[(1R,2S)-2-(2,2-difluoroethyl)-1-{[(1-methylcyclopropyl)sulfonyl]carbamoyl}cyclopropyl]-14-methoxy-9-methyl-3,6-dioxo-1,1a,3,4,5,6,9,10,18,19,20,21,22,22a-tetradecahydro-8H-7,10-methanocyclopropa[18,19][1,10,3,6]dioxadiazacyclononadecino[11,12-b]quinoxaline-8-carboxamide] to COc1ccc2nc3c(nc2c1)O[C@H]1CN(C(=O)[C@H](C(C)(C)C)NC(=O)O[C@@H]2C[C@H]2CCCCC3)[C@H](C(=O)N[C@]2(C(=O)NS(=O)(=O)C3CC3)C[C@H]2CCF)[C@@H]1C [Example 22, (1aR,5S,8S,9S,10R,22aR)-5-tert-butyl-N-[(R1R,2S)-1-[(cyclopropylsulfonyl)carbamoyl]-2-(2-fluoroethyl)cyclopropyl]-14-methoxy-9-methyl-3,6-dioxo-1,1a,3,4,5,6,9,10,18,19,20,21,22,22a-tetradecahydro-8H-7,10-methanocyclopropa[18,19][1,10,3,6]dioxadiazacyclononadecino[11,12-b]quinoxaline-8-carboxamide], the Ki rises from 0.39 nM to 1.3 nM (3.3-fold).
